According to patent US20230102836A1, “Amoebicidal Compositions for Contact Lens Solutions” (University of the West of Scotland, priority 2019, published 2023):
Several values for one entry are separate records, joined by “and”; a condition that tells them apart may be missing. Equal entries are not always repeated. Where two headings read alike, the source gives them in different places.

What was measured:
[1] = test system: A. castellanii trophozoites; assay: Cytotoxicity assay on trophozoites (resazurin / alamarBlue); format: cell-based, Acanthamoeba castellanii ATCC 50370; conditions: Acanthamoeba castellanii; Table 2; read-out: IC50 A. castellanii trophozoites
Method: (§1) Acanthamoeba castellanii ATCC 50370 trophozoites and cysts were cultured in Peptone Glucose (PG) medium and encystment medium (Chagla A H, Griffiths A J (1974) Microbiology: 85(1): 139-145) respectively at 25° C. Cysts were prepared by incubating trophozoites for 8 days in encystment medium and integrity validated with calcofluor (0.25 μg/ml) assay (Gatti S et al (2010) J. Med. Microbiol.; 59: 1324-1330) or sodium dodecyl sulfate (SDS, 0.5% w/v) disintegration assay (Dudley R et al (2005) Acta Trop.; 9: 100-8) and microscopic observation.
The compounds used in this study all contained alkyl-carbon chains: three APCs [dodecyl-PC (APC12), tetradecyl-PC. (APC14) and hexadecyl-PC (APC16)] (Anatrace) and four QACs [docdecyl-TMAB (QAC12), tetradecyl-TMAB (QAC14), hexadecyl-TMAB (QAC16) and octadecyl-TMAB (QAC18)](Sigma). All were prepared to a stock concentration of 1 mg/ml and diluted as required by the experimental protocol in the cytotoxicity assays. […]
[…] Resazurin (7-Hydroxy-31-phenoxazin-3-one 10-oxide; 5 mg/ml; McBride J et al (2005) J. Clin. Microbiol.; 43: 629-634) and trypan blue (0.4 μg/ml; Mafra C S P et al (2013) Investig. Ophthalmol. Vis. Si.; 54: 6363-6372) were then added to trophozoites and cysts respectively after being exposed to the compounds and the cell viability estimated microscopically and from changes in absorbance (at 595 nm and 570 nm) respectively.
(§2) Efficacy was expressed as a percentage of untreated controls for each drug concentration used and the data used to calculate the IC50. Cell density was estimated using the modified Neubaur hemocytometer and expressed as cells/ml.

[2] = test system: A. castellanii cysts; assay: Cytotoxicity assay on cysts (trypan blue); format: cell-based, Acanthamoeba castellanii ATCC 50370; conditions: Acanthamoeba castellanii
Method: as §1
The compounds used in this study all contained alkyl-carbon chains: three APCs [dodecyl-PC (APC12), tetradecyl-PC. (APC14) and hexadecyl-PC (APC16)] (Anatrace) and four QACs [docdecyl-TMAB (QAC12), tetradecyl-TMAB (QAC14), hexadecyl-TMAB (QAC16) and octadecyl-TMAB (QAC18)](Sigma). All were prepared to a stock concentration of 1 mg/ml and diluted as required by the experimental protocol in the cytotoxicity assays. A. castellanii trophozoites and cysts (at 10^5 cells/ml) with or without APCs or QACs (concentrations ranging from […] doubly diluted to 0.04 μg/ml to a final volume of 100 μl) in a 96-well plate were incubated at 25° C. for a duration determined by the experimental protocol.
For the combined assay, similar concentrations of QAC18 and APC16 were prepared and 18.75 μg/ml and 37.5 μg/ml of QAC12 added (to a final volume of 100 μl) were added to 10^5 cells/mi in a 96-well plate and later incubated at 25° C. for a duration determined by the experimental protocol. Resazurin (7-Hydroxy-31-phenoxazin-3-one 10-oxide; 5 mg/ml; McBride J et al (2005) J. Clin. Microbiol.; 43: 629-634) and trypan blue (0.4 μg/ml; Mafra C S P et al (2013) Investig. Ophthalmol. Vis. Si.; 54: 6363-6372) were then added to trophozoites and cysts respectively after being exposed to the compounds and the cell viability estimated microscopically and from changes in absorbance (at 595 nm and 570 nm) respectively.
as §2

[3] = test system: A. castellanii trophozoites; assay: Drug wash-out / alamarBlue-reversion assay, trophozoites; format: cell-based, Acanthamoeba castellanii ATCC 50370
[4] = test system: A. castellanii cysts; assay: Drug wash-out / alamarBlue-reversion assay, cysts; format: cell-based, Acanthamoeba castellanii ATCC 50370; conditions: for Back transformation to trophozoites after drug wash-out: Cysts; for Back transformation to trophozoites after drug wash-out: key: +: indicates cells reverting back to trophozoites after washout; and capable of oxidizing reduced alamarBlue from blue to pink after 8 days; −: indicates cell that did not revert to trophozoites after wash-out and unable to oxidise reduced alamarBlue solution
Method: For the drug kinetic assay, viability was assessed by the linked alamarBlue-reversion assay. Drug-treated cysts were washed with PBS and fresh PG medium was added to allow reversion to trophozoites for 5 days, after which, alamar blue was added and viability estimated as described above.
The cysticidal activity of QAC16 to QAC18 strongly correlated with (a) the alkyl-carbon chain lengths (Table 2) and the duration of drug contact (FIG. 8H). Like trophozoites, death was via leakage judged by 40% and 50% increase in DNA and proteins in the external milieu after 1 h (FIGS. 9A and 9B). To investigate if the cyst were viable, a complementary viability assay that involved, drug washout, incubation in PG medium to allow reversion of viable cyst to trophozoite for 7 days, and estimation of viability using the oxidation of resazurin after 6 h.

[5] = test system: Acanthamoeba trophozoites; assay: Checkerboard dilution QAC-APC interaction (Bliss model); format: cell-based, Acanthamoeba castellanii; conditions: APC12, APC14, APC16; 96 h at 25° C.
Method: Acanthamoeba trophozoites (10^5 cells/ml. n=5/treatment) treated with 100 μg/ml doubly diluted to 0.06 μg/ml of QAC12 (FIG. 7A), […], QAC16 (FIG. 7C) and QAC18 (FIG. 7D) with APC 12 (i), APCI 4 (ii) and APC16 (iii) for 96 h at 25° C. Cell viability estimated by the alamarBlue assay the dose-response curves used to produce a surface analysis (right panel) and the interaction profile determined using the Bliss model. The degree of interaction characterised by the QCScore heuristic score are produced as heat map (left panel). The colour of each cell in the heatmap and the surface analysis represents the assay response at that dose combination; red to orange, antagonistic: yellow to green, additive and blue, synergistic.
The change in potency between QAC and APC prompted us to used the checkerboard dilution method to identify synergistic interactions (FIG. 7A-D). Three interaction profiles, antagonistic (orange to red), additive (yellow to green) and synergistic (blue) were observed, with optimal synergistic interactions deemed to be significant occurring between 20-38%; (FIG. 7).

[6] = QACs; cited from earlier work

Row | SMILES | IC50 [1] | Back transformation to trophozoites after drug wash-out ([3]; 9.375 μg/ml, 1 h) | Back transformation to trophozoites after drug wash-out ([3]; 9.375 μg/ml, 24 h) | Back transformation to trophozoites after drug wash-out ([3]; 9.375 μg/ml, 48 h) | Back transformation to trophozoites after drug wash-out ([3]; 9.375 μg/ml, 72 h) | Back transformation to trophozoites after drug wash-out ([3]; 9.375 μg/ml, 96 h) | Back transformation to trophozoites after drug wash-out ([3]; 18.75 μg/ml, 1 h) | Back transformation to trophozoites after drug wash-out ([3]; 18.75 μg/ml, 24 h) | Back transformation to trophozoites after drug wash-out ([3]; 18.75 μg/ml, 48 h) | Back transformation to trophozoites after drug wash-out ([3]; 18.75 μg/ml, 72 h) | Back transformation to trophozoites after drug wash-out ([3]; 18.75 μg/ml, 96 h) | Back transformation to trophozoites after drug wash-out ([3]; 37.50 μg/ml, 1 h) | Back transformation to trophozoites after drug wash-out ([3]; 37.50 μg/ml, 24 h) | Back transformation to trophozoites after drug wash-out ([3]; 37.50 μg/ml, 48 h) | Back transformation to trophozoites after drug wash-out ([3]; 37.50 μg/ml, 72 h) | Back transformation to trophozoites after drug wash-out ([3]; 37.50 μg/ml, 96 h) | Amoebotoxicity after wash-out and replacement with PG medium ([3]; after 24 h at 18.75 μg/ml) | Back transformation to trophozoites after drug wash-out ([4]; 9.375 μg/ml, 24 h) | Back transformation to trophozoites after drug wash-out ([4]; 9.375 μg/ml, 48 h) | Back transformation to trophozoites after drug wash-out ([4]; 9.375 μg/ml, 72 h) | further results
1 | CCCCCCCCCCCCCC[N+](C)(C)C.[Br-] [QAC14, tetradecyltrimethyl ammonium bromide] | 9.07 µg/mL and 27 µM | + | + | + | + | + | + | + | + | + | + | + | − | − | − | − | amoebotoxic | + | + | + | IC50 ([2]; Table 2, read-out: IC50 A. castellanii cysts): 22.1 µg/mL and 65 µM; IC50 ([2]; after 96 h, trypan blue viability assay, read-out: Estimated IC50 against matured cysts): 15 µg/mL; Back transformation to trophozoites after drug wash-out ([4]; 18.75 μg/ml, 24 h): +; Back transformation to trophozoites after drug wash-out ([4]; 18.75 μg/ml, 48 h): +; Back transformation to trophozoites after drug wash-out ([4]; 18.75 μg/ml, 72 h): +; Back transformation to trophozoites after drug wash-out ([4]; 37.50 μg/ml, 24 h): +; Back transformation to trophozoites after drug wash-out ([4]; 37.50 μg/ml, 48 h): +; Back transformation to trophozoites after drug wash-out ([4]; 37.50 μg/ml, 72 h): +; Interaction profile of QAC combined with APCs [5]: less frequent and ‘noisy’; CMC [6]: 2.9 ± 0.1 µM
2 | CCCCCCCCCCCCCCCC[N+](C)(C)C.[Br-] [QAC16, hexadecyltrimethyl ammonium bromide] | 4.9 µg/mL and 19 µM | + | + | + | + | + | + | − | − | − | − | − | − | − | − | − | amoebotoxic | + | + | + | IC50 ([2]; 96 h, read-out: Estimated IC50 against matured cysts): 19 ± 0.03 µg/mL; IC50 ([2]; read-out: IC50 A. castellanii cysts): 19.2 µg/mL and 72 µM; Amoebotoxicity after wash-out and replacement with PG medium ([3]; from 1 h onwards at 37.5 μg/ml): amoebotoxic; Resurgence of cysts after drug washout ([4]; 37.5 μg/ml after 48 h): No resurgence; Back transformation to trophozoites after drug wash-out ([4]; 18.75 μg/ml, 24 h): +; Back transformation to trophozoites after drug wash-out ([4]; 18.75 μg/ml, 48 h): +; Back transformation to trophozoites after drug wash-out ([4]; 18.75 μg/ml, 72 h): +; Back transformation to trophozoites after drug wash-out ([4]; 37.50 μg/ml, 24 h): +; Back transformation to trophozoites after drug wash-out ([4]; 37.50 μg/ml, 48 h): −; Back transformation to trophozoites after drug wash-out ([4]; 37.50 μg/ml, 72 h): −; Interaction profile of QAC combined with APCs [5]: less frequent and ‘noisy’; CMC [6]: 0.26 ± 0.2 µM
